Source: article PMC2074379 (British Journal of Cancer, 1996)
“Also recorded” adds a separate entry of the source. One block for each molecule: values may come before it. Residues, ends and D or L forms follow the SMILES beside them.

Key:
[1] = Stability of antagonist D and antagonist G in 1% (w/v) mouse liver homogenate; assay type: in vitro ADME; details: for amount of antagonist remaining after 1 h of incubation: 50 nmol in 1.0 ml 1% w/v mouse liver homogenate in PBS pH 7.4, 37°C, HPLC with fluorescence detection, corrected for extraction efficiency (94.4% D, 94% G), three experiments; for amount of metabolite accumulated after 1 h: from 50 nmol parent antagonist in 1% mouse liver homogenate, PBS pH 7.4, 37°C, HPLC fluorescence, extraction efficiency 94.4% (D metabolites), 94% (G metabolites) assumed, mean of three experiments
Text: British Journal of Cancer (1996) 73, 715-720 ? 1996 Stockton Press All rights reserved 0007-0920/96 $12.00 % Metabolism of the broad-spectrum neuropeptide growth factor antagonist: ID-Arg1, D-Phe5, D-Trp7'9, Leull"-substance P DA Jones', J Cummings', SP Langdon', AJ Maclellan', T Higgins2, E Rozengurt2 and JF Smyth' 'Imperial Cancer Research Fund, Medical Oncology Unit, Western General Hospital, Edinburgh EH4 2XU; 2Imperial Cancer Research Fund, PO Box 123, Lincoln's Inn Fields, London WC2A 3PX, UK. Summary Broad-spectrum neuropeptide growth factor antagonists, such as [D-Arg', D-Phe5, D-Trp7'9, Leu']substance P (antagonist D) and [Arg6, D-Trp7'9, NmePhe8]substance p(6- 11) (antagonist G), are currently being investigated as possible anti-tumour agents. […] Keywords: broad spectrum; neuropeptide; antagonist; metabolism Successful, long-term treatment of small-cell lung cancer (SCLC) remains a major therapeutic problem. […] The disease is characterised by its ability to secrete and to be growth stimulated by a variety of neuropeptide growth factors that include bombesin/gastrin- releasing peptide (GRP), vasopressin, bradykinin, cholecys- tokinin and neurotensin (Woll and Rozengut, 1989). […] These agents include [D- Arg'-D-Phe5-D-Trp7'9-Leu' 1]-substance P and [Arg6-D-Trp7'9- NmePhe8]-substance P(6-11) (code named antagonists D and G respectively) (Sethi et al., 1992). […] In the near future antagonist G will be the first of this new class of compound, broad- spectrum neuropeptide growth factor antagonists, to enter a phase I clinical trial for the potential treatment of SCLC. […] The research reported here describes the characterisation of the in vitro metabolism of antagonist D, comparing its metabolic stability to that of antagonist G, which we have previously reported (Jones et al., 1995). […] Materials and methods Antagonist D was purchased from Peninsula Laboratories (St Helens, UK), Antagonist G was supplied by Peptech (Europe) (Copenhagen, Denmark). H-D-Arg-Pro-Lys-Pro-D- Phe-Gln-D-Trp-Phe-D-Trp-Leu-Leu-OH (metabolite 1) and H-D-Arg-Pro-Lys-Pro-D-Phe-Gln-D-Trp-Phe-D-Trp-Leu-OH (metabolite 2) were prepared in-house using conventional Fmoc solid-phase peptide synthesis procediures. Reagents for peptide synthesis were purchased from NovaBiochem (UK) (Nottingham, UK). Acetic acid and ammonium acetate were from BDH Chemicals (Poole, UK). Methanol and acetoni- trile were high-performance liquid chromatography (HPLC) grade from Rathburn Chemicals (Walkerburn, UK). Tri- fluoroacetic acid was from Sigma Chemical (Poole, UK). All other chemicals Were of the highest grade commercially available and used without further purification. Water was deionised and bidistilled in a quartz glass still. HPLC The HPLC system used consisted of two 510 HPLC pumps, a 712 WISP autosampler, a TCM column heater (all Waters, Northwich, UK) and a model 1046A fluorescence detector (Hewlett Packard, Walborn, Germany). A Waters MAXIMA 820 computer package was used with a Waters system interface module to control the system operation and collect and integrate data. Separation was achieved on a Prime- sphere 5 gm (250 x 4.6 mm) column (Phenomenex, Maccles- field, UK) using isocratic elution with 45% (v/v) acetonitrile in 0.1% (v/v) aqueous triflouroacetic acid (TFA) at 450C. Detection of the peptides was by fluorescence (Excitation 233 nm Emission 395 nm).

[2] = ref Cummings et al., 1994; cited from earlier work
Text: (§1) British Journal of Cancer (1996) 73, 715-720 ? 1996 Stockton Press All rights reserved 0007-0920/96 $12.00 % Metabolism of the broad-spectrum neuropeptide growth factor antagonist: ID-Arg1, D-Phe5, D-Trp7'9, Leull"-substance P DA Jones', J Cummings', SP Langdon', AJ Maclellan', T Higgins2, E Rozengurt2 and JF Smyth' 'Imperial Cancer Research Fund, Medical Oncology Unit, Western General Hospital, Edinburgh EH4 2XU; 2Imperial Cancer Research Fund, PO Box 123, Lincoln's Inn Fields, London WC2A 3PX, UK. Summary Broad-spectrum neuropeptide growth factor antagonists, such as [D-Arg', D-Phe5, D-Trp7' ...

[3] = tested on: Swiss 3T3 cells stimulated by vasopressin; test: [3H]thymidine uptake by Swiss 3T3 cells after mitogenic stimulation by vasopressin; assay type: cell-based, murine; details: vasopressin 1 nM, 40 h, mean of duplicate samples
[4] = tested on: SCLC and non-SCLC cell lines; details: SCLC and non-SCLC cell lines in vitro; ref Reeve and Bleehan, 1994; cited from earlier work
Text: as §1

[5] = tested on: SCLC cells; details: ref Woll and Rozengurt, 1988; cited from earlier work
Text: as §1

[6] = tested on: SCLC xenografts (HC12 and ICR-SC112); details: ref Everard et al., 1993; cited from earlier work
Text: as §1

[7] = tested on: SCLC xenografts (WX322 and H69); details: WX322 and H69 xenografts in nude mice; ref Langdon et al., 1992; cited from earlier work
Text: as §1

[8] = tested on: non-SCLC, ovarian and cervical cancer cell lines; details: ref Everard et al., 1992; cited from earlier work
Text: as §1

[9] = tested on: Swiss 3T3 cells stimulated by bombesin; test: [3H]thymidine uptake by Swiss 3T3 cells after mitogenic stimulation by bombesin; assay type: cell-based, murine; details: bombesin 1 nM, insulin 1 µg/ml, 40 h, mean of duplicate samples
[10] = tested on: Swiss 3T3 cells stimulated by bradykinin; test: [3H]thymidine uptake by Swiss 3T3 cells after mitogenic stimulation by bradykinin; assay type: cell-based, murine; details: bradykinin 1 nM, insulin 1 µg/ml, 40 h, mean of duplicate samples
[11] = 1% (w/v) mouse liver homogenate in PBS (pH 7.4); details: 37?C, up to 1 h
[12] = human plasma; details: cited from earlier work
[13] = 2% w/v mouse liver homogenate in PBS (pH 7.4); details: 37?C, up to 2 h

Molecule: CC(C)C[C@H](NC(=O)[C@H](CC(C)C)NC(=O)[C@@H](Cc1c[nH]c2ccccc12)NC(=O)[C@H](Cc1ccccc1)NC(=O)[C@@H](Cc1c[nH]c2ccccc12)NC(=O)[C@H](CCC(N)=O)NC(=O)[C@@H](Cc1ccccc1)NC(=O)[C@@H]1CCCN1C(=O)[C@H](CCCCN)NC(=O)[C@@H]1CCCN1C(=O)[C@H](N)CCCN=C(N)N)C(N)=O [antagonist D, [D-Arg1, D-Phe5, D-Trp7,9, Leu11]substance P] (HELM PEPTIDE1{[dR].P.K.P.[dF].Q.[dW].F.[dW].L.L.[am]}$$$$V2.0)
amount of antagonist remaining after 1 h of incubation [1]: 30.8 nmol
stability relative to antagonist G ([1]; 1% mouse liver homogenate, 37°C (Figure 2)): almost twice as stable as antagonist G
rate of disappearance relative to antagonist G ([1]; over the first 30 min, 1% mouse liver homogenate, 37°C): half the rate of antagonist G
stability in human plasma [2]: stable

Molecule: CC(C)C[C@H](NC(=O)[C@H](CC(C)C)NC(=O)[C@@H](Cc1c[nH]c2ccccc12)NC(=O)[C@H](Cc1ccccc1)NC(=O)[C@@H](Cc1c[nH]c2ccccc12)NC(=O)[C@H](CCC(N)=O)NC(=O)[C@@H](Cc1ccccc1)NC(=O)[C@@H]1CCCN1C(=O)[C@H](CCCCN)NC(=O)[C@@H]1CCCN1C(=O)[C@H](N)CCCNC(=N)N)C(N)=O [antagonist D, [D-Arg1, D-Phe5, D-Trp7,9, Leu11]substance P] (HELM PEPTIDE1{[dR].P.K.P.[dF].Q.[dW].F.[dW].L.L.[am]}$$$$V2.0)
IC50 ([3]; [3H]thymidine uptake, read-out: IC50 value, vasopressin stimulated growth): < 1 µM
induction of apoptosis [4]: induce apoptosis
potency against SCLC cells in vitro relative to antagonist G [5]: equipotent to antagonist G
activity against other SCLC xenografts in vivo [6]: activity
growth of SCLC xenografts [7]: inhibit the growth
in vitro activity against cancer cell lines [8]: activity

Molecule: H-D-Arg-Pro-Lys-Pro-D-Phe-GIn-D-Trp-Phe-D-Trp-Leu-Leu-NH2
not cleaved [12]: stable in human plasma
cleaved bond [13]: Leu11-NH2, major; also recorded: Leu10-Leu11, major
cleaved bond [11]: Leu11-NH2, major; also recorded: Leu10-Leu11, major

Second part, led by results:

amount of antagonist remaining after 1 h of incubation [1]: 21.1 nmol
Molecule: CSCC[C@H](NC(=O)[C@H](CC(C)C)NC(=O)[C@@H](Cc1c[nH]c2ccccc12)NC(=O)[C@H](Cc1ccccc1)N(C)C(=O)[C@@H](Cc1c[nH]c2ccccc12)NC(=O)[C@@H](N)CCCNC(=N)N)C(N)=O [antagonist G, [Arg6, D-Trp7,9, NmePhe8]substance P(6-11)] (HELM PEPTIDE1{R.[dW].[meF].[dW].L.M.[am]}$$$$V2.0)
growth of SCLC xenografts [7]: inhibit the growth

amount of metabolite accumulated after 1 h [1]: 9.6 nmol
Molecule: CC(C)C[C@H](NC(=O)[C@H](CC(C)C)NC(=O)[C@@H](Cc1c[nH]c2ccccc12)NC(=O)[C@H](Cc1ccccc1)NC(=O)[C@@H](Cc1c[nH]c2ccccc12)NC(=O)[C@H](CCC(N)=O)NC(=O)[C@@H](Cc1ccccc1)NC(=O)[C@@H]1CCCN1C(=O)[C@H](CCCCN)NC(=O)[C@@H]1CCCN1C(=O)[C@H](N)CCCNC(=N)N)C(=O)O [metabolite 1, H-D-Arg-Pro-Lys-Pro-D-Phe-Gln-D-Trp-Phe-D-Trp-Leu-Leu-OH] (HELM PEPTIDE1{[dR].P.K.P.[dF].Q.[dW].F.[dW].L.L}$$$$V2.0)
antagonist activity with respect to bombesin (inhibition of [3H]thymidine uptake) [9]: retained none of the antagonist properties
vasopressin antagonist activity (inhibition of [3H]thymidine uptake) ([3]; insulin 1 µg/ml): inactive
antagonist activity with respect to bradykinin (inhibition of [3H]thymidine uptake) [10]: retained none of the antagonist properties

amount of metabolite accumulated after 1 h [1]: 12.3 nmol
Molecule: CC(C)C[C@H](NC(=O)[C@@H](Cc1c[nH]c2ccccc12)NC(=O)[C@H](Cc1ccccc1)NC(=O)[C@@H](Cc1c[nH]c2ccccc12)NC(=O)[C@H](CCC(N)=O)NC(=O)[C@@H](Cc1ccccc1)NC(=O)[C@@H]1CCCN1C(=O)[C@H](CCCCN)NC(=O)[C@@H]1CCCN1C(=O)[C@H](N)CCCNC(=N)N)C(=O)O [metabolite 2, H-D-Arg-Pro-Lys-Pro-D-Phe-Gln-D-Trp-Phe-D-Trp-Leu-OH] (HELM PEPTIDE1{[dR].P.K.P.[dF].Q.[dW].F.[dW].L}$$$$V2.0)
antagonist activity with respect to bombesin (inhibition of [3H]thymidine uptake) [9]: retained none of the antagonist properties
antagonist activity with respect to bradykinin (inhibition of [3H]thymidine uptake) [10]: retained none of the antagonist properties

cleaved bond [11]: Met-NH2, major
Molecule: H-Arg-D-Trp-N"'Phe-D-Trp-Leu-Met-NH,
